Data reported in PMC4744546 (Pharmaceutical research, 2015).
Read-outs that look alike come from different tables or passages of the source. Blank lines part the entries; values can stand above or below the molecule they belong to.

How the values were obtained:
[1] = type: in vivo, FVB wild-type mice
[2] = Pharmacokinetic study of oral resveratrol with or without curcumin in Bcrp1; type: in vivo, Bcrp1 (−/−) mice (FVB background); settings: for Cmax / Tmax / half-life: FVB, mouse, whole blood, po, 20 mg/kg, oral resveratrol 20mg/kg; for Cmax: blood
[3] = humans; ref [16]; cited from earlier work
BCRP [4] = settings: oral sulfasalazine, curcumin pretreatment vs none, ref [37]; cited from earlier work
[5] = test system: human MRP2-overexpressing MDCK II-UGT1A1 cells; assay: Effect of curcumin on fmet of resveratrol conjugates in MDCK II cells; type: cell-based; settings: 4 h
human MRP2 = human MRP2 (Homo sapiens, UniProt Q92887); assay: Effect of curcumin on MRP2-mediated efflux; type: cell-based; settings: MRP2-overexpressing MDCK II-UGT1A1 cells
human MRP2, sequence (Q92887 whole entry): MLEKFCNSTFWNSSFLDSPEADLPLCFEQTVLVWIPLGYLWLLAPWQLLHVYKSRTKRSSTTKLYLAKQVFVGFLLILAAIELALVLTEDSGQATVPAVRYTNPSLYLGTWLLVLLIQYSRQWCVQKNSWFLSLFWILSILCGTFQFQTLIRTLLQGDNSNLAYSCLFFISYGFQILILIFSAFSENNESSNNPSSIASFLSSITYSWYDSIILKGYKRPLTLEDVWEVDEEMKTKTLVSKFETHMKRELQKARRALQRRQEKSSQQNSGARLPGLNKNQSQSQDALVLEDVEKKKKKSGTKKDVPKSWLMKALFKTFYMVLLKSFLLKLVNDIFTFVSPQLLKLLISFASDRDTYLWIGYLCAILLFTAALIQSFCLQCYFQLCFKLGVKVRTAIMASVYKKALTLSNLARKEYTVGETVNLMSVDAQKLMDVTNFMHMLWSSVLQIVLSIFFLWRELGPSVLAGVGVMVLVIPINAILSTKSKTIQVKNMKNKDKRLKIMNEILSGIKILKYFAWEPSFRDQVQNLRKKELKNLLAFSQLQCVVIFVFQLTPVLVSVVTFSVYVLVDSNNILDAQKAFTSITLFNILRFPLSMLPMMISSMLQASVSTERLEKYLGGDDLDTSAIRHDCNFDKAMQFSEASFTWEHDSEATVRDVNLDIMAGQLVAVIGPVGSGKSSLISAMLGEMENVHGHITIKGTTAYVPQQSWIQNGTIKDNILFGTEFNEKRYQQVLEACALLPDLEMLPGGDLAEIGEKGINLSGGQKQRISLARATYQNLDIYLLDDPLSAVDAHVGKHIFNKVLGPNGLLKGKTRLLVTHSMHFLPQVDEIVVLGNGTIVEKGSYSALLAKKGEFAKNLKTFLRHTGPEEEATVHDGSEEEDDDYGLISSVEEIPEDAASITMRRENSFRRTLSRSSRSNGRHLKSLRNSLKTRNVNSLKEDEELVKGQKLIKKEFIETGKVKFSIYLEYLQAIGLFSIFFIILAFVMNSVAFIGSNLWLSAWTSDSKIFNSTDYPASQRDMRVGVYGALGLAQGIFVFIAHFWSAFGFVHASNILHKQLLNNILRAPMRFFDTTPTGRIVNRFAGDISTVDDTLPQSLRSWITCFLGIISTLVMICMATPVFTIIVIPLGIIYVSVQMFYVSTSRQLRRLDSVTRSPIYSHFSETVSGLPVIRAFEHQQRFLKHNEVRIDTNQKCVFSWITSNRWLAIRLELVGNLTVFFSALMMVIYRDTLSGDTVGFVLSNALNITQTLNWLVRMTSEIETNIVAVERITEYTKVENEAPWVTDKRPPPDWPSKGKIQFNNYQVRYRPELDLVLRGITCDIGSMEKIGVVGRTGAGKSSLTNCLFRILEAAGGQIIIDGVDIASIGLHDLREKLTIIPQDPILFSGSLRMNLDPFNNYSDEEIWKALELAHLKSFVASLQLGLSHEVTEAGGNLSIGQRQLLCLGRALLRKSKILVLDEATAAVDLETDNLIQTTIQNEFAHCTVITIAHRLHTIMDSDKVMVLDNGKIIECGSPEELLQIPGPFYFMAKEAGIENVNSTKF

BCRP [6] = target: T1, BCRP (Homo sapiens, UniProt Q9UNQ0); assay: Effect of curcumin on BCRP-mediated efflux; type: cell-based; settings: UGT1A9-overexpressing HeLa cells
T1 sequence (Q9UNQ0 1-655): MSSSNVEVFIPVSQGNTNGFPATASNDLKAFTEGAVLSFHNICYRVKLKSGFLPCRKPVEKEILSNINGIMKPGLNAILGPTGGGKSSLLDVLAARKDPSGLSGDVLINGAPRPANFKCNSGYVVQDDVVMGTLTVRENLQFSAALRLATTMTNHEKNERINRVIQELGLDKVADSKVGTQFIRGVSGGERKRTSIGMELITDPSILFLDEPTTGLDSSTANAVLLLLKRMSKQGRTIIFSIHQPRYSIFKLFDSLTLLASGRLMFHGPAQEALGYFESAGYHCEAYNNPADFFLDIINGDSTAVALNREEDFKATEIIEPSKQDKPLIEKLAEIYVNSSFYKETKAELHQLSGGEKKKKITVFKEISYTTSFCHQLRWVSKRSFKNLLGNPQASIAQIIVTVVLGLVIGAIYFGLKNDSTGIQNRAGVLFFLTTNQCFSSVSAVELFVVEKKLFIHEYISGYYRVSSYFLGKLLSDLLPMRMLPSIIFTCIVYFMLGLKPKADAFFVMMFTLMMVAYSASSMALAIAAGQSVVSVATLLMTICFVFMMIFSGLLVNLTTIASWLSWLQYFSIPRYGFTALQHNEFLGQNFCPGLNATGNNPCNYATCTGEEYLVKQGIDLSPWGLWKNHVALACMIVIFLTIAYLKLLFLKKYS

[7] = Characterization of resveratrol metabolites in pooled human liver S9 fraction; type: in vitro ADME
colon cancer cell lines = settings: ref [18]; cited from earlier work
[8] = FVB, mouse, whole blood, po, 20 mg/kg
[9] = curcumin 50nM, resveratrol […], 4 h, p<0.01
[10] = curcumin 50nM, resveratrol […], 4 h, p<0.05
[11] = WT mice with curcumin vs without, resveratrol 20mg/kg oral

Cmax [1, 8]: 1320 ± 710 nM
Tmax ([1]; FVB, mouse, whole blood, po, 20 mg/kg, Tmax, WT with curcumin, oral resveratrol 20mg/kg): 0.31 ± 0.12 h
half-life ([1]; FVB, mouse, whole blood, po, 20 mg/kg, t1/2, WT control, oral resveratrol 20mg/kg without curcumin): 3.77 ± 1.74 h
half-life ([1]; FVB, mouse, whole blood, po, 20 mg/kg, t1/2, WT with curcumin, oral resveratrol 20mg/kg): 9.32 ± 5.64 h
Cmax ([2]; Bcrp1 (−/−) with curcumin): 1800 ± 170 nM
Cmax ([2]; Bcrp1 (−/−) without curcumin): 2400 ± 980 nM
Tmax ([2]; Bcrp1 (−/−) with curcumin): 0.25 h
Tmax ([2]; Bcrp1 (−/−) without curcumin): 0.25 h
half-life ([2]; t1/2, Bcrp1 (−/−) with curcumin): 5.82 ± 2.55 h
half-life ([2]; t1/2, Bcrp1 (−/−) without curcumin): 4.41 ± 0.44 h
Structure (SMILES): O=S(=O)(O)Oc1cc(O)cc(C=Cc2ccc(O)cc2)c1 [R-3-S, resveratrol-3-O-sulfate]
peak plasma levels relative to that of resveratrol [3]: 3- to 8 fold

reduction of CL of RES-3-O-G (human MRP2; curcumin 50nM, resveratrol […], 4 h, p<0.001): 46%
reduction of CL of RES-4′-O-G (human MRP2; [9]): 50%
reduction of CL of RES-3-O-S (human MRP2; [10]): 53%
reduction of CL of RES-4′-O-S (human MRP2; [10]): 54%
decrease of CL of RES-3-O-G (BCRP [6]; [9]): 28%
decrease of CL of RES-3-O-S (BCRP [6]; [10]): 35%
inhibitory effect on CL at higher concentration (BCRP [6]; curcumin 100nM vs 50nM): no greater extent of inhibitory effect
Structure (SMILES): COc1cc(/C=C/C(=O)CC(=O)/C=C/c2ccc(O)c(OC)c2)ccc1O [curcumin, diferuoyl methane]
decrease in fmet of RES-4′-O-G ([5]; curcumin 200nM, p<0.05): ~20%
reduction in fmet of RES-3-O-G ([5]; curcumin 200nM, p>0.05): ~12%
decrease in fmet of RES-4′-O-G ([5]; curcumin 500nM, p<0.01): approximately 24%
reduction in fmet of RES-3-O-G ([5]; curcumin 500nM, p<0.05): ~14%
decrease in fmet of RES-4′-O-G ([5]; curcumin 1000nM, p<0.01): about 33%
reduction in fmet of RES-3-O-G ([5]; curcumin 1000nM, p<0.05): approximately 24%
change in fmet values for all metabolites ([5]; lower concentrations of curcumin (100nM, 50nM)): no significant change
inhibitory effect on CL at higher concentration (human MRP2; curcumin 100nM vs 50nM): no greater concentration-dependent inhibitory effect
inhibitory effect on CL of RES-4′-G (BCRP [6]; curcumin 100nM, 50nM, resveratrol […], 4 h): did not show any significant inhibitory effect

Cmax [1, 8]: 600 ± 260 nM
increase of AUC with curcumin [1, 11]: 2 fold
increase of maximum blood concentration (Cmax) with curcumin [1, 11]: ~100%
Cmax ([2]; Bcrp1 (−/−) with curcumin): 390 ± 170 nM
Cmax ([2]; Bcrp1 (−/−) without curcumin): 790 ± 440 nM
Tmax ([2]; Bcrp1 (−/−) without curcumin): 0.31 ± 0.12 h
change in AUC with curcumin ([2]; curcumin-treated vs curcumin-untreated Bcrp1 (−/−) mice): decreased moderately
Structure (SMILES): Oc1ccc(/C=C/c2cc(O)cc(O)c2)cc1 [Resveratrol, trans-3,5,4′-trihydroxystilbene]

Continued, molecule first:

Structure (SMILES): O=C(O)c1cc(/N=N/c2ccc(S(=O)(=O)Nc3ccccn3)cc2)ccc1O [SASP, sulfasalazine]
plasma level in mice pretreated with curcumin (BCRP [4]): two folds higher

Structure (SMILES): O=C(O)[C@H]1O[C@@H](Oc2ccc(/C=C/c3cc(O)cc(O)c3)cc2)[C@H](O)[C@@H](O)[C@@H]1O [RES-4′-O-G, resveratrol-4′-O-glucuronide]
amount of metabolite generated relative to the 3-O conjugate [7]: about one fifth
IC50 of cell growth inhibition compared to parent compound (colon cancer cell lines): comparable
peak plasma levels relative to that of resveratrol [3]: 3- to 8 fold

Structure (SMILES): O=C(O)[C@H]1O[C@@H](Oc2cc(O)cc(/C=C/c3ccc(O)cc3)c2)[C@H](O)[C@@H](O)[C@@H]1O [R-3-G, resveratrol-3-O-glucuronide]
IC50 of cell growth inhibition compared to parent compound (colon cancer cell lines): comparable
